Calls of active or inactive are those of the source. No cut-off for these calls is given here.
Legend:
Adrenergic receptor beta [1] = molecular target: T1, Adrenergic receptor beta (Homo sapiens, UniProt P08588+P07550+P13945); test: In Vitro inhibition of the beta adrenergic receptor in guinea pig atria; assay type: tissue-based, Cavia porcellus; conditions: target entry is the homologue from another species
[2] = Selectivity determined by expression 10[pA2(atria) - pA2 (trachea)] in guinea pig; assay type: functional, Cavia porcellus
Adrenergic receptor beta [3] = molecular target: T1, Adrenergic receptor beta; test: In vitro blocking of beta adrenergic receptor in guinea pig trachea; assay type: tissue-based, Cavia porcellus; conditions: target entry is the homologue from another species

CC(C)(C)NCC(O)COC(=O)C1CCCC1 (centres undefined)
pA2 (Adrenergic receptor beta [1]): 5.3

Cc1cc(N)ccc1C(=O)OCC(O)CNC(C)(C)C (centres undefined)
Selectivity [2]: -4
pA2 (Adrenergic receptor beta [1]): 7.8
pA2 (Adrenergic receptor beta [3]): 8.4

COc1ccc(CCNCC(O)C(=O)Oc2ccccc2C)cc1OC (centres undefined)
pA2 (Adrenergic receptor beta [1]): 5.9

C=CCOc1ccc(C(=O)OCC(O)CNC(C)(C)C)cc1 (centres undefined)
pA2 (Adrenergic receptor beta [1]): 6

CC(C)NCC(O)COC(=O)c1ccc(OCc2ccccc2)cc1 (centres undefined)
pA2 (Adrenergic receptor beta [1]): < 6

CC(C)NCC(O)COC(=O)c1cccc2ccccc12 (centres undefined)
Selectivity [2]: -2.5
pA2 (Adrenergic receptor beta [1]): 6.6
pA2 (Adrenergic receptor beta [3]): 7

Cc1cccc(C(=O)OCC(O)CNC(C)(C)C)c1 (centres undefined)
Selectivity [2]: -2
pA2 (Adrenergic receptor beta [1]): 7
pA2 (Adrenergic receptor beta [3]): 7.3

CC(C)(C)NCC(O)COC(=O)CCCc1ccccc1 (centres undefined)
pA2 (Adrenergic receptor beta [1]): 5.3

CC(C)(C)NCC(O)COC(=O)c1ccc(N)cc1 (centres undefined)
Selectivity [2]: 1
pA2 (Adrenergic receptor beta [1]): 7
pA2 (Adrenergic receptor beta [3]): 7

CC(C)NCC(O)COC(=O)c1cccc([N+](=O)[O-])c1 (centres undefined)
Selectivity [2]: -2.5
pA2 (Adrenergic receptor beta [1]): 6.8
pA2 (Adrenergic receptor beta [3]): 7.2

COCCOC(=O)NCC(C)(C)NCC(O)COC(=O)c1ccccc1F (centres undefined)
Selectivity [2]: 1
pA2 (Adrenergic receptor beta [1]): 7.7
pA2 (Adrenergic receptor beta [3]): 7.7

COc1ccc(CCNCC(O)COC(=O)c2ccc(CO)cc2)cc1OC (centres undefined)
pA2 (Adrenergic receptor beta [1]): < 5.5

C=CCOc1cccc(C(=O)OCC(O)CNC(C)C)c1 (centres undefined)
Selectivity [2]: 1
pA2 (Adrenergic receptor beta [1]): 6.8
pA2 (Adrenergic receptor beta [3]): 6.8

COc1ccc(CCNCC(O)COC(=O)c2ccc(N)cc2)cc1OC (centres undefined)
Selectivity [2]: 6
pA2 (Adrenergic receptor beta [1]): 6.5
pA2 (Adrenergic receptor beta [3]): 5.7

CCCOc1cccc(C(=O)OCC(O)CNC(C)C)c1 (centres undefined)
pA2 (Adrenergic receptor beta [1]): 6.6

CC(=O)NCC(C)NCC(O)COC(=O)c1ccccc1F (centres undefined)
pA2 (Adrenergic receptor beta [1]): < 6.3

CCCOc1ccc(C(=O)OCC(O)CNC(C)(C)C)cc1 (centres undefined)
pA2 (Adrenergic receptor beta [1]): 5.4

CC(C)NCC(O)COc1ccccc1 (centres undefined)
Selectivity [2]: 4
pA2 (Adrenergic receptor beta [1]): 8
pA2 (Adrenergic receptor beta [3]): 7.4

CC(C)C(=O)NCCNCC(O)COC(=O)c1ccccc1F (centres undefined)
pA2 (Adrenergic receptor beta [1]): 6.1

COc1ccc(CCNCC(O)COC(=O)c2ccc(C)cc2)cc1OC (centres undefined)
Selectivity [2]: 4
pA2 (Adrenergic receptor beta [1]): 6.6
pA2 (Adrenergic receptor beta [3]): 6

O=C(Cc1ccccc1)NCCNCC(O)COC(=O)c1ccccc1F (centres undefined)
pA2 (Adrenergic receptor beta [1]): < 6

CC(C)(C)NCC(O)COC(=O)c1cccc(N)c1 (centres undefined)
Selectivity [2]: -3.5
pA2 (Adrenergic receptor beta [1]): 6.7
pA2 (Adrenergic receptor beta [3]): 7.2

CNCC(O)COC(=O)c1ccc2c(c1)OCO2 (centres undefined)
pA2 (Adrenergic receptor beta [1]): 5.3

COc1ccccc1COC(=O)C(O)CNCCc1ccc(OC)c(OC)c1 (centres undefined)
pA2 (Adrenergic receptor beta [1]; Cavia porcellus): inactive
pA2 (Adrenergic receptor beta [3]): 5

CC(C)(C)NCC(O)COC(=O)c1ccc(OCc2ccccc2)cc1 (centres undefined)
pA2 (Adrenergic receptor beta [1]): 6.2

CC(=O)Nc1ccc(C(=O)OCC(O)CNC(C)C)cc1 (centres undefined)
Selectivity [2]: 4
pA2 (Adrenergic receptor beta [1]): 5.8
pA2 (Adrenergic receptor beta [3]): 5.2

CC(C)(C)NCC(O)COC(=O)C1c2ccccc2-c2ccccc21 (centres undefined)
pA2 (Adrenergic receptor beta [1]): < 6

C=CCOc1ccccc1C(=O)OCC(O)CNC(C)C (centres undefined)
Selectivity [2]: -2
pA2 (Adrenergic receptor beta [1]): 6.4
pA2 (Adrenergic receptor beta [3]): 6.2

CN(C)S(=O)(=O)NCC(C)(C)NCC(O)COC(=O)c1ccccc1F (centres undefined)
Selectivity [2]: 1
pA2 (Adrenergic receptor beta [1]): 7.4
pA2 (Adrenergic receptor beta [3]): 7.5

Cc1cccc(C(=O)OCC(O)CNC(C)C)c1 (centres undefined)
Selectivity [2]: -3
pA2 (Adrenergic receptor beta [1]): 6.8
pA2 (Adrenergic receptor beta [3]): 7.3

Cc1cc([N+](=O)[O-])ccc1C(=O)OCC(O)CNC(C)(C)C (centres undefined)
Selectivity [2]: -5
pA2 (Adrenergic receptor beta [1]): 6.6
pA2 (Adrenergic receptor beta [3]): 7.3

CC(C)(C)NCC(O)COC(=O)c1ccncc1 (centres undefined)
pA2 (Adrenergic receptor beta [1]): 5.3

Cc1ccccc1OCC(O)CNC(C)C (centres undefined)
Selectivity [2]: 3
pA2 (Adrenergic receptor beta [1]): 8.6
pA2 (Adrenergic receptor beta [3]): 8.2

COc1ccc(CCNCC(O)COC(=O)c2cccc(F)c2)cc1OC (centres undefined)
Selectivity [2]: 2
pA2 (Adrenergic receptor beta [1]): 6.4
pA2 (Adrenergic receptor beta [3]): 6.2

CC(=O)Nc1cccc(C(=O)OCC(O)CNC(C)C)c1 (centres undefined)
Selectivity [2]: -2
pA2 (Adrenergic receptor beta [1]): 6.1
pA2 (Adrenergic receptor beta [3]): 6.4

Reference: ChEMBL document CHEMBL1122794, “[(Arylcarbonyl)oxy]propanolamines. 1. Novel beta-blockers with ultrashort duration of action” (J Med Chem, 1984)
